# Test system: TF-1 cells
# Assay: Post-thaw recovery of TF-1 cells by membrane integrity assay (SYTO 13/ethidium bromide) after cryopreservation
# Format: cell-based, human
# Details: TF-1 cells in 10% DMSO/RPMI, conventional cooling at a constant rate of 0.9° C./min, then liquid nitrogen, thawed
# Method: FIG. 12. Membrane integrity of TF-1 cells in 10% DMSO cooled at 1° C./min to various subzero temperatures and then either thawed directly (upper curve) or cooled rapidly at 325° C./min in liquid nitrogen (lower curve) before being thawed.
# TF-1 cells (ATCC, Manassas, Va.) were grown at 37° C. in 5% CO2 in RPMI 1640 Medium Modified (ATCC) with 10% fetal bovine serum (FBS) (ATCC), and supplemented with 2 ng/mL recombinant human GM-CSF (Stemcell Technologies, Vancouver, Canada). Cells were maintained between 0.1×10^6 and 1×10^6 cells/mL, according to ATCC guidelines. Prior to experiments, cells were washed twice with serum-free RPMI media and incubated overnight. […]
# Cell viability was assessed by a membrane integrity assay. […]
# The Syto/EB stain was prepared using 40 μL of 2.5 mM EB stock solution and 10 μL of 5 mM Syto® 13 stock solution mixed with 350 μL 1× phosphate-buffered saline (PBS). […] Fluorescent images were captured using a Leitz Dialux 22 fluorescence (440-480 nm) microscope (Leitz, Germany) fitted with a PIXERA DiRactor (Pixera Corporation, Los Gatos, Calif., USA) digital camera. The Viability Assessment Program (The Great Canadian Computer Company, Spruce Grove, Canada), which counts red versus green pixels was used to quantify cell membrane integrity from digital images (Jomha, 2003). […]
structure (smiles),measurement,value
"C[S+](C)[O-] [DMSO, dimethyl sulfoxide]",recovery (membrane integrity) after thawing,63.7%

# From patent publication US9078429B2, “Method of cryopreserving stem cells” (The Governors of the University of Alberta, priority 2004, dated 2015)
